Measurements reported in patent US20220220128A1, “HETEROCYCLIC COMPOUNDS AS KINASE INHIBITORS, COMPOSITIONS COMPRISING THE HETEROCYCLIC COMPOUND, AND METHODS OF USE THEREOF” (JS Innopharm (Shanghai) Ltd, priority 2019, published 2022).
Where two headings read alike, the source gives them in different places.

Assays:
TT cells = assay: TT Cell Proliferation Assay (WST-8, 8 days); type: cell-based; details: growth inhibition in TT cells, read-out: TT Cellular Activity
How it was run: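 IC50 was derived from absorbance at 450 nm after 5 h with WST-8, following 8 days' incubation at 37 °C. Final compound levels spanned 0.0005–5 μM in 0.5% DMSO. TT cells were seeded at 6,000 per well in 10% FBS RPMI-1640 and left to attach for 24 h beforehand.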

human RET kinase = target: T1, human RET kinase (Homo sapiens, UniProt P07949); assay: RET Kinase Assay (LanthaScreen TR-FRET enzymatic assay); type: biochemical; details: 7 nM RET, 23 μM ATP
T1 construct: purchased Carna 08-159
How it was run: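 TR-FRET enzymatic read-out using 23 μM ATP, 3 μM FAM-P2 substrate and 7 nM human RET, after 15-min compound pretreatment at room temperature and a 1 h reaction at 28° C in HEPES pH 7.5 buffer. Percent of DMSO control fitted to nonlinear sigmoid curves for IC50.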

human KDR kinase = target: T2, human KDR kinase (Homo sapiens, UniProt P35968); assay: KDR Kinase Assay (LanthaScreen TR-FRET enzymatic assay); type: biochemical; details: 1.2 nM KDR, 92 μM ATP
T2 construct: purchased Carna 08-191
How it was run: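 TR-FRET enzymatic format: after 15-min room-temperature compound pretreatment, 1.2 nM human KDR phosphorylated 3 μM FAM-P22 with 92 μM ATP (HEPES pH 7.5, 28° C., one hour). Reactions were quenched with EDTA buffer. IC50 came from nonlinear sigmoid fits of percent-of-vehicle signal ratios.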

T2 sequence (P35968 20-1356): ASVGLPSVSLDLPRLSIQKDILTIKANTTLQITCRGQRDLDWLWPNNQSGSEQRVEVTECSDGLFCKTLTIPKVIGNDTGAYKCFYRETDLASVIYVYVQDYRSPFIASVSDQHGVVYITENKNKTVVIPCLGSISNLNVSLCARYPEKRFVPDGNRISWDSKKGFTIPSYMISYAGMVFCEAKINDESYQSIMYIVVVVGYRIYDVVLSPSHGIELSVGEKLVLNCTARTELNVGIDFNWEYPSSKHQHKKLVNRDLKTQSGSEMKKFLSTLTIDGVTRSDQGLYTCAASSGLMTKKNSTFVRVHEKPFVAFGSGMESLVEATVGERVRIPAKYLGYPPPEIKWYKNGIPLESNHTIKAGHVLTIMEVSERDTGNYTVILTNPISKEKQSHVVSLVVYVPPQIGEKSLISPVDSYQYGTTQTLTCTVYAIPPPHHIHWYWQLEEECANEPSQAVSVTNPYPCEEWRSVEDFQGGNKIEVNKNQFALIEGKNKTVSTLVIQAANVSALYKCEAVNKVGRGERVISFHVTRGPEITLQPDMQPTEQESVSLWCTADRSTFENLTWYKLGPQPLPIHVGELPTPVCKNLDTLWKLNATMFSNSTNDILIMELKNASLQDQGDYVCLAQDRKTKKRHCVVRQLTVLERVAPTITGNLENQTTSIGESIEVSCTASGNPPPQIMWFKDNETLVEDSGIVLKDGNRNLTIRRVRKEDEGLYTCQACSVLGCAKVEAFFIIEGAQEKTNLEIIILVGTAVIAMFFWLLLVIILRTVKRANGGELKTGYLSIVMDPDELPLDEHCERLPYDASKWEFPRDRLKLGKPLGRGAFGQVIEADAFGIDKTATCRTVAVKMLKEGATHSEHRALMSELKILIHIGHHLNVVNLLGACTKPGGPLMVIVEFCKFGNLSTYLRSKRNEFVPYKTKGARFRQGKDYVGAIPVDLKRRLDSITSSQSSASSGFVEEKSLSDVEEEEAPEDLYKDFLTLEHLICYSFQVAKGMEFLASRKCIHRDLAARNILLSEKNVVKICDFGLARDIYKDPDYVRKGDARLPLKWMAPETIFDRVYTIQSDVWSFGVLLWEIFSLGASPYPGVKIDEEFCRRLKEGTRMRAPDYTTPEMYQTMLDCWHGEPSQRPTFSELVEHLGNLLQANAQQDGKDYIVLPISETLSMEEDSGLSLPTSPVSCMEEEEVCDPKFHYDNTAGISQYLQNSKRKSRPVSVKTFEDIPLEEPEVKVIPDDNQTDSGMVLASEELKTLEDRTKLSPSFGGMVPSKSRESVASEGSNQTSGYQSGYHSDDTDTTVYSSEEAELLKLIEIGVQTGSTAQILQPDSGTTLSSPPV
T1 sequence (P07949 29-1114): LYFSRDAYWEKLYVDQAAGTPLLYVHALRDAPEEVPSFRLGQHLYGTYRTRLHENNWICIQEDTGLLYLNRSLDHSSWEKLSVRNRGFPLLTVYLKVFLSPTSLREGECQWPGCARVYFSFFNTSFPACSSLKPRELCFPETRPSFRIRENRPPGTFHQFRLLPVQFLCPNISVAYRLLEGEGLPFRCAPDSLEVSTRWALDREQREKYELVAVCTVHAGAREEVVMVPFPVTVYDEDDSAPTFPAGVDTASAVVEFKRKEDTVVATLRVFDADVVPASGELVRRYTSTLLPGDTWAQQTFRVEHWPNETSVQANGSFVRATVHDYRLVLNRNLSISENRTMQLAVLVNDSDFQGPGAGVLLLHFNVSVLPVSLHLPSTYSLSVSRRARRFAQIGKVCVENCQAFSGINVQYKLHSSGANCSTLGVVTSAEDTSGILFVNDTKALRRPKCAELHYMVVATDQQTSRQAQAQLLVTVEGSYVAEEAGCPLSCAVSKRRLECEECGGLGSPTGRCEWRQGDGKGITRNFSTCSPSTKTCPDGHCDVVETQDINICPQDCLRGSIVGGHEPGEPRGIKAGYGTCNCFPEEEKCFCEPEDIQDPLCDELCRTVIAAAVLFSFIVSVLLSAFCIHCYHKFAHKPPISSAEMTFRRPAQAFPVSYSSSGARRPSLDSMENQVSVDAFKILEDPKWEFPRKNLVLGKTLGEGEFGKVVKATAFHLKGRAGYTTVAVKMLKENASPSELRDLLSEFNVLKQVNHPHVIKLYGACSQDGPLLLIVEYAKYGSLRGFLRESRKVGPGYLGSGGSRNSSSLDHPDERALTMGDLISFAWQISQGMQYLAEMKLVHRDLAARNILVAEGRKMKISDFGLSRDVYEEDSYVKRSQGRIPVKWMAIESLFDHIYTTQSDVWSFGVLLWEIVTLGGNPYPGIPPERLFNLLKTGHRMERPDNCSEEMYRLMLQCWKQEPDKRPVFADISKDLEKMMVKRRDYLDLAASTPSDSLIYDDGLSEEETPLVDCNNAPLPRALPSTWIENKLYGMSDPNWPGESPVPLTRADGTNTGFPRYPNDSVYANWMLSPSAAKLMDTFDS

| Compound | IC50 (human RET kinase) [nM] | IC50 (human KDR kinase) [nM] | IC50 (TT cells; Homo sapiens, TT, 192 h) [nM] | IC50 (TT cells) [nM] |
| --- | --- | --- | --- | --- |
| Cn1cc(-c2cc(-c3ccc(N4C[C@@H]5C[C@@](C)(NS(=O)(=O)c6c(F)cccc6Cl)C[C@@H]5C4)nc3)c3c(C#N)cnn3c2)cn1 [Example 59, 2-chloro-N-((3aR,5s,6aS)-2-(5-(3-cyano-6-(1-methyl-1H-pyrazol-4-yl)pyrazolo[1,5-a]pyridin-4-yl)pyridin-2-yl)-5-methyloctahydrocyclopenta[c]pyrrol-5-yl)-6-fluorobenzenesulfonamide] | ≤ 10 | ≤ 10 | ≤ 10 | – |
| CC(C)C(O)C(=O)NC[C@H]1[C@H]2CN(c3ccc(-c4cc(-c5cnn(C)c5)cn5ncc(C#N)c45)cn3)C[C@@H]12 (stereo partly drawn) [Example 77, N-(((1R,5S,6r)-3-(5-(3-cyano-6-(1-methyl-1H-pyrazol-4-yl)pyrazolo[1,5-a]pyridin-4-yl)pyridin-2-yl)-3-azabicyclo[3.1.0]hexan-6-yl)methyl)-2-hydroxy-3-methylbutanamide] | ≤ 10 | ≤ 10 | ≤ 10 | – |
| Cn1cc(-c2cc(-c3ccc(N4C[C@@H]5[C@H](C4)[C@@H]5NS(=O)(=O)c4c(F)cccc4Cl)nc3)c3c(C#N)cnn3c2)cn1 [Example 35, 2-chloro-N-((1R,5S,6r)-3-(5-(3-cyano-6-(1-methyl-1H-pyrazol-4-yl)pyrazolo[1,5-a]pyridin-4-yl)pyridin-2-yl)-3-azabicyclo[3.1.0]hexan-6-yl)-6-fluorobenzenesulfonamide] | ≤ 10 | 10 to 50 | 10 to 50 | – |
| CCOc1cc(-c2ccc(N3C[C@@H]4C[C@@](C)(NC(=O)c5cc(F)ccc5C)C[C@@H]4C3)nc2)c2c(C#N)cnn2c1 [Example 69, N-((3aR,5s,6aS)-2-(5-(3-cyano-6-ethoxypyrazolo[1,5-a]pyridin-4-yl)pyridin-2-yl)-5-methyloctahydrocyclopenta[c]pyrrol-5-yl)-5-fluoro-2-methylbenzamide] | ≤ 10 | > 100 | ≤ 10 | – |
| CC(C)C(=O)N[C@H]1[C@@H]2CN(c3ccc(-c4cc(-c5cnn(C)c5)cn5ncc(C#N)c45)cn3)C[C@@H]21 [Example 31, N-((1R,5 S,6s)-3-(5-(3-cyano-6-(1-methyl-1H-pyrazol-4-yl)pyrazolo[1,5-a]pyridin-4-yl)pyridin-2-yl)-3-azabicyclo[3.1.0]hexan-6-yl)isobutyramide] | ≤ 10 | 10 to 50 | 50 to 100 | – |
| COc1ccc(C(=O)N2C[C@@H]3CN(c4ccc(-c5cc(-c6cnn(C)c6)cn6ncc(C#N)c56)cn4)C[C@@H]3C2)cn1 [Example 1, 4-(6-((3aR,6aS)-5-(6-methoxynicotinoyl)hexahydropyrrolo[3,4-c]pyrrol-2(1H)-yl)pyridin-3-yl)-6-(1-methyl-1H-pyrazol-4-yl)pyrazolo[1,5-a]pyridine-3-carbonitrile] | ≤ 10 | 10 to 50 | 10 to 50 | – |
| Cn1cc(-c2cc(-c3ccc(N4C[C@@H]5[C@H](C4)[C@@H]5NC(=O)c4ncccc4Cl)nc3)c3c(C#N)cnn3c2)cn1 [Example 30, 3-chloro-N-((1R,5S,6r)-3-(5-(3-cyano-6-(1-methyl-1H-pyrazol-4-yl)pyrazolo[1,5-a]pyridin-4-yl)pyridin-2-yl)-3-azabicyclo[3.1.0]hexan-6-yl)picolinamide] | ≤ 10 | 10 to 50 | 10 to 50 | – |
| COc1ccc(C(=O)N[C@]2(C)C[C@H]3CN(c4ccc(-c5cc(-c6cnn(C)c6)cn6ncc(C#N)c56)cn4)C[C@H]3C2)cn1 [Example 58, N-((3aR,5s,6aS)-2-(5-(3-cyano-6-(1-methyl-1H-pyrazol-4-yl)pyrazolo[1,5-a]pyridin-4-yl)pyridin-2-yl)-5-methyloctahydro-cyclopenta[c]pyrrol-5-yl)-6-methoxy-nicotinamide] | ≤ 10 | ≤ 10 | 10 to 50 | – |

Continued, in another order:

| IC50 (human RET kinase) [nM] | IC50 (human KDR kinase) [nM] | Compound | IC50 (TT cells; Homo sapiens, TT, 192 h) [nM] | IC50 (TT cells) [nM] |
| --- | --- | --- | --- | --- |
| ≤ 10 | 10 to 50 | CC(C)C(O)C(=O)NC12CC3CC(C1)N(c1ccc(-c4cc(OCC(C)(C)O)cn5ncc(C#N)c45)cn1)C(C3)C2 [Example 99, N-((1R,3 S,5s,7s)-2-(5-(3-cyano-6-(2-hydroxy-2-methylpropoxy)pyrazolo[1,5-a]pyridin-4-yl)pyridin-2-yl)-2-azaadamantan-5-yl)-2-hydroxy-3-methylbutanamide] | 10 to 50 | – |
| ≤ 10 | ≤ 10 | Cc1cccc(Cl)c1C(=O)NC[C@@H]1[C@H]2CN(c3ccc(-c4cc(-c5cnn(C)c5)cn5ncc(C#N)c45)cn3)C[C@@H]12 [Example 84, 2-chloro-N-(((1R,5S,6s)-3-(5-(3-cyano-6-(1-methyl-1H-pyrazol-4-yl)pyrazolo[1,5-a]pyridin-4-yl)pyridin-2-yl)-3-azabicyclo[3.1.0]hexan-6-yl)methyl)-6-methylbenzamide] | – | ≤ 10 |
| ≤ 10 | 10 to 50 | Cc1ccc(F)cc1C(=O)NC[C@@H]1[C@H]2CN(c3ccc(-c4cc(-c5cnn(C)c5)cn5ncc(C#N)c45)cn3)C[C@@H]12 [Example 81, N-(((1R,5S,6s)-3-(5-(3-cyano-6-(1-methyl-1H-pyrazol-4-yl)pyrazolo[1,5-a]pyridin-4-yl)pyridin-2-yl)-3-azabicyclo[3.1.0]hexan-6-yl)methyl)-5-fluoro-2-methylbenzamide] | ≤ 10 | – |
| ≤ 10 | 50 to 100 | CC(C)(O)COc1cc(-c2ccc(N3C4CC5CC3CC(NS(C)(=O)=O)(C5)C4)nc2)c2c(C#N)cnn2c1 [Example 131, N-((1R,3S,5s,7s)-2-(5-(3-cyano-6-(2-hydroxy-2-methylpropoxy)pyrazolo[1,5-a]pyidin-4-yl)pyridin-2-yl)-2-azaadamantan-5-yl)methanesulfonamide] | 10 to 50 | – |
| ≤ 10 | ≤ 10 | Cn1cc(-c2cc(-c3ccc(N4C[C@@H]5[C@H](CNC(=O)C(O)c6ccccc6)[C@@H]5C4)nc3)c3c(C#N)cnn3c2)cn1 (stereo partly drawn) [Example 79, N-(((1R,5S,6r)-3-(5-(3-cyano-6-(1-methyl-1H-pyrazol-4-yl)pyrazolo[1,5-a]pyridin-4-yl)pyridin-2-yl)-3-azabicyclo[3.1.0]hexan-6-yl)methyl)-2-hydroxy-2-phenylacetamide] | ≤ 10 | – |
| ≤ 10 | 10 to 50 | Cn1cc(-c2cc(-c3ccc(N4C[C@@H]5[C@@H](CNC(=O)c6ncccc6C(F)(F)F)[C@@H]5C4)nc3)c3c(C#N)cnn3c2)cn1 [Example 86, N-(((1R,5S,6s)-3-(5-(3-cyano-6-(1-methyl-1H-pyrazol-4-yl)pyrazolo[1,5-a]pyridin-4-yl)pyridin-2-yl)-3-azabicyclo[3.1.0]hexan-6-yl)methyl)-3-(trifluoromethyl)picolinamide] | – | ≤ 10 |
| ≤ 10 | 10 to 50 | CC(C)CC(=O)NC[C@@H]1[C@H]2CN(c3ccc(-c4cc(-c5cnn(C)c5)cn5ncc(C#N)c45)cn3)C[C@@H]12 [Example 88, N-(((1R,5S,6s)-3-(5-(3-cyano-6-(1-methyl-1H-pyrazol-4-yl)pyrazolo[1,5-a]pyridin-4-yl)pyridin-2-yl)-3-azabicyclo[3.1.0]hexan-6-yl)methyl)-3-methylbutanamide] | ≤ 10 | – |
